Reference: publication PMC10878397, “Development of Potent Dual BET/HDAC Inhibitors via Pharmacophore Merging and Structure-Guided Optimization” (ACS Chemical Biology, 2024)

Legend:
PCAFA = molecular target: T1, PCAFA (Homo sapiens, UniProt Q92831); assay: DSF bromodomain selectivity panel; format: binding; settings: 10 μM compound
T1 construct: purchased in-house (SGC Frankfurt recombinant bromodomain DSF panel)
Procedure: (§1) The effects of inhibitor binding on the apparent melting temperature of recombinant bromodomains were determined by DSF in a 96-well plate (Starlab) at a protein concentration of 2 μM with 10 μΜ compound in buffer containing 25 mM HEPES, pH 7.5, 150 mM NaCl, and 0.5 mM TCEP. […] Protein unfolding profiles were recorded using an MX3005P real-time qPCR instrument (Agilent; excitation/emission filters = 492/610 nm) while increasing the temperature from 25 to 95 °C at a heating rate of 3 °C/min. Tm values were calculated after fitting the fluorescence curves to the Boltzmann equation. Differences in melting temperature upon compound binding are given as ΔTm = Tm (protein with inhibitor) – Tm (protein with DMSO control). Measurements were performed in triplicates.

PB1A(4) = molecular target: T2, PB1A(4) (Homo sapiens, UniProt Q86U86); assay: DSF bromodomain selectivity panel; format: binding; settings: 10 μM compound
T2 construct: PB1A(4); purchased in-house (SGC Frankfurt recombinant bromodomain DSF panel)
Procedure: as §1

TRIM24 = molecular target: T3, TRIM24 (Homo sapiens, UniProt O15164); assay: DSF bromodomain selectivity panel; format: binding; settings: 10 μM compound, construct containing tandem PHD-BD
T3 construct: purchased in-house (SGC Frankfurt recombinant bromodomain DSF panel)
Procedure: as §1

TAF1 (2) = molecular target: T4, TAF1 (2) (Homo sapiens, UniProt P21675); assay: DSF bromodomain selectivity panel; format: binding; settings: 10 μM compound
T4 construct: TAF1 (2); purchased in-house (SGC Frankfurt recombinant bromodomain DSF panel)
Procedure: as §1

SP100 = assay: DSF bromodomain selectivity panel; format: binding; settings: 10 μM compound
Procedure: as §1

BRD2 (1) = molecular target: T5, BRD2 (1) (Homo sapiens, UniProt P25440); assay: DSF bromodomain selectivity panel; format: binding; settings: 10 μM compound
T5 construct: BRD2 (1); purchased in-house (SGC Frankfurt recombinant bromodomain DSF panel)
Procedure: as §1

BAZ2B = molecular target: T6, BAZ2B (Homo sapiens, UniProt Q9UIF8); assay: DSF bromodomain selectivity panel; format: binding; settings: 10 μM compound
T6 construct: purchased in-house (SGC Frankfurt recombinant bromodomain DSF panel)
Procedure: as §1

EP300A = molecular target: T7, EP300A (Homo sapiens, UniProt Q09472); assay: DSF bromodomain selectivity panel; format: binding; settings: 10 μM compound
T7 construct: purchased in-house (SGC Frankfurt recombinant bromodomain DSF panel)
Procedure: as §1

ATAD2A = molecular target: T8, ATAD2A (Homo sapiens, UniProt Q6PL18); assay: DSF bromodomain selectivity panel; format: binding; settings: 10 μM compound
T8 construct: purchased in-house (SGC Frankfurt recombinant bromodomain DSF panel)
Procedure: as §1

WDR9A(1) = molecular target: T9, WDR9A(1) (Homo sapiens, UniProt Q9NSI6); assay: DSF bromodomain selectivity panel; format: binding; settings: 10 μM compound
T9 construct: WDR9A(1); purchased in-house (SGC Frankfurt recombinant bromodomain DSF panel)
Procedure: as §1

CREBBPA = molecular target: T10, CREBBPA (Homo sapiens, UniProt Q92793); assay: DSF bromodomain selectivity panel; format: binding; settings: 10 μM compound
T10 construct: purchased in-house (SGC Frankfurt recombinant bromodomain DSF panel)
Procedure: as §1

PB1A(6) = molecular target: T11, PB1A(6) (Homo sapiens, UniProt Q86U86); assay: DSF bromodomain selectivity panel; format: binding; settings: 10 μM compound
T11 construct: PB1A(6); purchased in-house (SGC Frankfurt recombinant bromodomain DSF panel)
Procedure: as §1

TAF1 (1) = molecular target: T12, TAF1 (1) (Homo sapiens, UniProt P21675); assay: DSF bromodomain selectivity panel; format: binding; settings: 10 μM compound
T12 construct: TAF1 (1); purchased in-house (SGC Frankfurt recombinant bromodomain DSF panel)
Procedure: as §1

BRPF3 = molecular target: T13, BRPF3 (Homo sapiens, UniProt Q9ULD4); assay: DSF bromodomain selectivity panel; format: binding; settings: 10 μM compound
T13 construct: purchased in-house (SGC Frankfurt recombinant bromodomain DSF panel)
Procedure: as §1

TAF1LA (1) = molecular target: T14, TAF1LA (1) (Homo sapiens, UniProt Q8IZX4); assay: DSF bromodomain selectivity panel; format: binding; settings: 10 μM compound
T14 construct: TAF1LA (1); purchased in-house (SGC Frankfurt recombinant bromodomain DSF panel)
Procedure: as §1

BRD9 = molecular target: T15, BRD9 (Homo sapiens, UniProt Q9H8M2); assay: DSF bromodomain selectivity panel; format: binding; settings: 10 μM compound
T15 construct: purchased in-house (SGC Frankfurt recombinant bromodomain DSF panel)
Procedure: as §1

PB1A(5) = molecular target: T16, PB1A(5) (Homo sapiens, UniProt Q86U86); assay: DSF bromodomain selectivity panel; format: binding; settings: 10 μM compound
T16 construct: PB1A(5); purchased in-house (SGC Frankfurt recombinant bromodomain DSF panel)
Procedure: as §1

TRIM33B = molecular target: T17, TRIM33B (Homo sapiens, UniProt Q9UPN9); assay: DSF bromodomain selectivity panel; format: binding; settings: 10 μM compound, construct containing tandem PHD-BD
T17 construct: purchased in-house (SGC Frankfurt recombinant bromodomain DSF panel)
Procedure: as §1

BRD3 (2) = molecular target: T18, BRD3 (2) (Homo sapiens, UniProt Q15059); assay: DSF bromodomain selectivity panel; format: binding; settings: 10 μM compound
T18 construct: BRD3 (2); purchased in-house (SGC Frankfurt recombinant bromodomain DSF panel)
Procedure: as §1

SMARCA2A = molecular target: T19, SMARCA2A (Homo sapiens, UniProt P51531); assay: DSF bromodomain selectivity panel; format: binding; settings: 10 μM compound
T19 construct: purchased in-house (SGC Frankfurt recombinant bromodomain DSF panel)
Procedure: as §1

BRPF1B = molecular target: T20, BRPF1B (Homo sapiens, UniProt P55201); assay: DSF bromodomain selectivity panel; format: binding; settings: 10 μM compound
T20 construct: purchased in-house (SGC Frankfurt recombinant bromodomain DSF panel)
Procedure: as §1

BRD7 = molecular target: T21, BRD7 (Homo sapiens, UniProt Q9NPI1); assay: DSF bromodomain selectivity panel; format: binding; settings: 10 μM compound
T21 construct: purchased in-house (SGC Frankfurt recombinant bromodomain DSF panel)
Procedure: as §1

BRD2 (2) = molecular target: T22, BRD2 (2) (Homo sapiens, UniProt P25440); assay: DSF bromodomain selectivity panel; format: binding; settings: 10 μM compound
T22 construct: BRD2 (2); purchased in-house (SGC Frankfurt recombinant bromodomain DSF panel)
Procedure: as §1

TAF1LA (2) = molecular target: T23, TAF1LA (2) (Homo sapiens, UniProt Q8IZX4); assay: DSF bromodomain selectivity panel; format: binding; settings: 10 μM compound
T23 construct: TAF1LA (2); purchased in-house (SGC Frankfurt recombinant bromodomain DSF panel)
Procedure: as §1

panel of 32 bromodomains = assay: DSF selectivity screen, whole panel; format: binding; settings: 10 μM compound
Procedure: as §1

HDAC1 = HDAC1 (Homo sapiens, UniProt Q13547); assay: HDAC selectivity profile (Reaction Biology); format: biochemical; design: purchased Reaction Biology; settings: no inhibitor control as 100%, read-out: % Enzyme activity HDAC1
Procedure: (§2) The reactions were performed by Reaction Biology using a protease-coupled assay with fluorogenic substrates where, after deacetylation by the HDAC and subsequent proteolytic digest, the free fluorophore 7-amino-4-methyl coumarin (AMC) can be quantified.[60] The following substrates were used for activity assays: HDACs 1, 2, 3, and 6: fluorogenic tetrapeptide from p53 residues 379–382 (RHKK(Ac) AMC); HDACs 4, 5, 7, 9, and 11: fluorogenic HDAC class2a substrate (trifluoroacetyl lysine); HDAC8: twice acetylated fluorogenic tetrapeptide from p53 residues 379–382 (RHK(Ac) K(Ac) AMC); HDAC10: Ac-spermidine-AMC. Data are given as % residual activity compared with the uninhibited control reaction.

[1] = system: zinc-dependent HDACs (HDAC1–11); assay: HDAC selectivity profile, whole panel; format: biochemical, human; settings: 1 and 10 μM
Procedure: as §2

Sequence of HDAC1 (Q13547 whole entry, the tested form may be a part): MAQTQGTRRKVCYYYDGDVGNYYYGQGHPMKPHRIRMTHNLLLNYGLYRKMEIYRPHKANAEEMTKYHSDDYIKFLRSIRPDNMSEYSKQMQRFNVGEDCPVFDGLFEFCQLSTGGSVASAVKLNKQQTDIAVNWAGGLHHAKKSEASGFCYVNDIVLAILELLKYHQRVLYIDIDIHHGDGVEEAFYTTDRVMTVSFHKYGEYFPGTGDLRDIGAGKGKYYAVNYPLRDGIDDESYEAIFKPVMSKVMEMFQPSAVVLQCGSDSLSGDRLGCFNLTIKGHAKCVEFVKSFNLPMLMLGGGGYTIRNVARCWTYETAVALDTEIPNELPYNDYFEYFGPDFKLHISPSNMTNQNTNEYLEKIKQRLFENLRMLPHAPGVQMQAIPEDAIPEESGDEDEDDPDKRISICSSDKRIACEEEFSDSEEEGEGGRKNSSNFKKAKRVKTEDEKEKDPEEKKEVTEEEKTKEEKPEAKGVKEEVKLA
T4 sequence (P21675 1522-1656 limits assumed): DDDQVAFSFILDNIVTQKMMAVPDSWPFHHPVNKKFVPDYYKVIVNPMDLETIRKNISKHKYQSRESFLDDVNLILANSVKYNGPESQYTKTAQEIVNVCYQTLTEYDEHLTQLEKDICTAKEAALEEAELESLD
T10 sequence (Q92793 whole entry): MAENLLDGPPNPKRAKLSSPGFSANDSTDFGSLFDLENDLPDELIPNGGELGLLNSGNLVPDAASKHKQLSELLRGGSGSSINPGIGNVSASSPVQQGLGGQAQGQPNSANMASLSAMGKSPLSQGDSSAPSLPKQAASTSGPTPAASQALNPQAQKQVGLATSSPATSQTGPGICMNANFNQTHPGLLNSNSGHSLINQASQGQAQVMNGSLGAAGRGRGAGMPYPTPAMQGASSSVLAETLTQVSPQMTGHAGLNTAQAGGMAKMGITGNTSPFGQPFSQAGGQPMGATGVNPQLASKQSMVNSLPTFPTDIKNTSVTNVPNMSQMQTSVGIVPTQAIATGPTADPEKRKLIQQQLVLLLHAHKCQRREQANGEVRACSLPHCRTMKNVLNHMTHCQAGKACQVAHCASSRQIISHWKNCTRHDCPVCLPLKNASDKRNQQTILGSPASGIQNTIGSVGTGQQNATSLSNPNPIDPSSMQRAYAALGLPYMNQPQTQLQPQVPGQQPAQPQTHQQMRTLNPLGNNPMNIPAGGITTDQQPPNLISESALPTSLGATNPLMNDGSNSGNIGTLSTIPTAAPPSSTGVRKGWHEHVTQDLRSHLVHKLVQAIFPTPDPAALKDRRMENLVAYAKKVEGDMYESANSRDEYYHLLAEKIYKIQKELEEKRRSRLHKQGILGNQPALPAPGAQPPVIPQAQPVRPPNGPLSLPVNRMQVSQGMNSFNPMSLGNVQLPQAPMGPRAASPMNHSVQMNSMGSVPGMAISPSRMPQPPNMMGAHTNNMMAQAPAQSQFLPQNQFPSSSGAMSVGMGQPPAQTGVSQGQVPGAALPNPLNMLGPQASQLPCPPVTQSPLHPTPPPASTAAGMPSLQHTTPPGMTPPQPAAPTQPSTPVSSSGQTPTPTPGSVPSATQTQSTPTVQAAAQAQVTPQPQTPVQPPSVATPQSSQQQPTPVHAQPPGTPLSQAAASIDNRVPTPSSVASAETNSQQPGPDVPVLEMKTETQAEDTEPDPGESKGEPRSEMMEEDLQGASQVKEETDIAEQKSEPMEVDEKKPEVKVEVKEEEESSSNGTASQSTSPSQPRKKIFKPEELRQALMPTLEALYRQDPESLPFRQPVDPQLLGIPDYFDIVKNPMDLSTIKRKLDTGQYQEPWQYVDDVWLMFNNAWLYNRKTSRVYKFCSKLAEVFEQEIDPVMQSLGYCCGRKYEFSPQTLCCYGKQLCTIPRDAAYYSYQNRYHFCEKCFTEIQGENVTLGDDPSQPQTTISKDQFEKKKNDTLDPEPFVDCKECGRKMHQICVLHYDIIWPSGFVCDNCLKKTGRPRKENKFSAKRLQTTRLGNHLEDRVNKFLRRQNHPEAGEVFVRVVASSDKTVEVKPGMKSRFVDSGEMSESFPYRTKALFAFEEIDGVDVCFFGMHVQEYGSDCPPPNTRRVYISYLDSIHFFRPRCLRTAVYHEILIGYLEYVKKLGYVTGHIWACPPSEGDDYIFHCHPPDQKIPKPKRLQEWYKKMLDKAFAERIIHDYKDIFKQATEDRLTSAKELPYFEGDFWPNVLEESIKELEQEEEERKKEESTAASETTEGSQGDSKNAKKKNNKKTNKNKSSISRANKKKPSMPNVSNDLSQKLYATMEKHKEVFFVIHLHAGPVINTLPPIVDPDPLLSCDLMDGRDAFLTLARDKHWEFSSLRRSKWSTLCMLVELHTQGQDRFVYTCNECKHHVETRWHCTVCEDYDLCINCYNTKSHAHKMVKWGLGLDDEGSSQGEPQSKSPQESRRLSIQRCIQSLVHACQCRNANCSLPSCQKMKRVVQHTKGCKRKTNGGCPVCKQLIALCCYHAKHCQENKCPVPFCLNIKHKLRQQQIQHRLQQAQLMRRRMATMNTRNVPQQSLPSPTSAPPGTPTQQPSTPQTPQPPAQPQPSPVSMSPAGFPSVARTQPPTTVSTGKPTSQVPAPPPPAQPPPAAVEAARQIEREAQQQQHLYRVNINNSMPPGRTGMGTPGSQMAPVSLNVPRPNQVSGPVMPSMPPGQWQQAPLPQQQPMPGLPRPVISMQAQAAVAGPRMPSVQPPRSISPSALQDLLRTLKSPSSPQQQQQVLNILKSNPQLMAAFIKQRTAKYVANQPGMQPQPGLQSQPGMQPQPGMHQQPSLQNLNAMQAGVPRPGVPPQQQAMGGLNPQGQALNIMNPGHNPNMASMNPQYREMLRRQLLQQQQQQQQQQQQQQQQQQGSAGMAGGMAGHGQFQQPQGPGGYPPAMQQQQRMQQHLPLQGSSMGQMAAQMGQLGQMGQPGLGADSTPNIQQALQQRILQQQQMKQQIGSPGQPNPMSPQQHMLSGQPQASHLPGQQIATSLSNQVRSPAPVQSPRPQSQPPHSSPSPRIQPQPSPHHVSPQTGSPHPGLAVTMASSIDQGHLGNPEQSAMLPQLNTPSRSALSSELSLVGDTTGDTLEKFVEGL
T13 sequence (Q9ULD4 whole entry): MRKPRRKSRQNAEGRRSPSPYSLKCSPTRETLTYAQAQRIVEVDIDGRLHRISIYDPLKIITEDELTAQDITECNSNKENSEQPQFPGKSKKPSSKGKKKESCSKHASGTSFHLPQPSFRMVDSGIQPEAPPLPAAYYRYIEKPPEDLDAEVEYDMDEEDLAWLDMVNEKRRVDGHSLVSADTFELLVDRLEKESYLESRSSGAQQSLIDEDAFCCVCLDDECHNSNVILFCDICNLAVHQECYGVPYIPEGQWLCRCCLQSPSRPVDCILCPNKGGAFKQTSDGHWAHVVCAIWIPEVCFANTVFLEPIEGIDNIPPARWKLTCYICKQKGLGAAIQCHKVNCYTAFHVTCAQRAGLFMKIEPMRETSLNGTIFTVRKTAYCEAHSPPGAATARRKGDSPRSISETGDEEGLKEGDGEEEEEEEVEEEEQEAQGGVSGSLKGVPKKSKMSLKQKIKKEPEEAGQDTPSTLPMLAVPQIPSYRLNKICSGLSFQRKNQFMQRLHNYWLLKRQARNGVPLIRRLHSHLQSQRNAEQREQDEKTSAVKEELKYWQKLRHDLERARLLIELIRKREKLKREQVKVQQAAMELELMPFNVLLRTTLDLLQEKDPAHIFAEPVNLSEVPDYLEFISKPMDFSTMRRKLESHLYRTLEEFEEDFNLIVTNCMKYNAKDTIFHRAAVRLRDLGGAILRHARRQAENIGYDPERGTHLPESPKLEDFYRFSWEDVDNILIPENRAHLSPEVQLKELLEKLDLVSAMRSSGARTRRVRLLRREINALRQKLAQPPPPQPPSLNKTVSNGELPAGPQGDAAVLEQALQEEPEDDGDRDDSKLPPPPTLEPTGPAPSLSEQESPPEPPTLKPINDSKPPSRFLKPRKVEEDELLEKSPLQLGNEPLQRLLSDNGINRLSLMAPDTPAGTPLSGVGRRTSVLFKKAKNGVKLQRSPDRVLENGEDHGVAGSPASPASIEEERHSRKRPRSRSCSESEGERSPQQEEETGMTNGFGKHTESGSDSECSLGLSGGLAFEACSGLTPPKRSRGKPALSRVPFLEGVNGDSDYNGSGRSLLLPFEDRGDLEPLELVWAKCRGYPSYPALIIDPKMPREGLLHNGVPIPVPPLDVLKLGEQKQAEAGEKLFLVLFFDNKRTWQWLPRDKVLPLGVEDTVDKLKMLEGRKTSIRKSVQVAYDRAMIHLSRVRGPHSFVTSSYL
T11 sequence (Q86U86 773-914 limits assumed): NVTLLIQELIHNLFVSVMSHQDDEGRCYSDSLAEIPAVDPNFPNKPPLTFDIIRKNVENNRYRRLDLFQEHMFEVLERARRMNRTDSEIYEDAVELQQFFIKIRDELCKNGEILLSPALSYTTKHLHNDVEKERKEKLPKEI
T23 sequence (Q8IZX4 1523-1654 limits assumed): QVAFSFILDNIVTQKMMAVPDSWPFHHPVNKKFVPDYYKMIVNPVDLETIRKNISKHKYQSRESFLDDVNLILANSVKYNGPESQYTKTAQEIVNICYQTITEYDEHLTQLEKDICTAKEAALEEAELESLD
T18 sequence (Q15059 306-416 limits assumed): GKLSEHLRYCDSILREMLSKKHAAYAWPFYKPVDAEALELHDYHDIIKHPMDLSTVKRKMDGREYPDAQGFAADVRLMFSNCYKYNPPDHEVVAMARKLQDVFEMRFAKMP
T22 sequence (P25440 344-455 limits assumed): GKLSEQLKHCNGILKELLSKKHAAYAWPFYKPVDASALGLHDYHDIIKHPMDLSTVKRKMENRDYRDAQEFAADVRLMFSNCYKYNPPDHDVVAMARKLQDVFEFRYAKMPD
T16 sequence (Q86U86 645-766 limits assumed): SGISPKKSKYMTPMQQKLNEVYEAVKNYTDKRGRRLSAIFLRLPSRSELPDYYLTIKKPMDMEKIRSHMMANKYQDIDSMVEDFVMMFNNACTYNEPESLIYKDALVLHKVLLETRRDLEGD
T12 sequence (P21675 1397-1505 limits assumed): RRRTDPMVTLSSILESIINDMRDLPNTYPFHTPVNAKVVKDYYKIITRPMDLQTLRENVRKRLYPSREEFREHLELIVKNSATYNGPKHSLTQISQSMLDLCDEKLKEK

Structure (SMILES)	Mean Tm PCAFA (PCAFA) [K]	Mean Tm PB1A(4) (PB1A(4)) [K]	Mean Tm TRIM24 (TRIM24) [K]	Mean Tm TAF1 (2) (TAF1 (2)) [K]	Mean Tm SP100 (SP100) [K]	Mean Tm BRD2 (1) (BRD2 (1)) [K]	Mean Tm BAZ2B (BAZ2B) [K]	Mean Tm EP300A (EP300A) [K]	Mean Tm ATAD2A (ATAD2A) [K]	Mean Tm WDR9A(1) (WDR9A(1)) [K]	Mean Tm CREBBPA (CREBBPA) [K]	Mean Tm PB1A(6) (PB1A(6)) [K]	Mean Tm TAF1 (1) (TAF1 (1)) [K]	Mean Tm BRPF3 (BRPF3) [K]	Mean Tm TAF1LA (1) (TAF1LA (1)) [K]	Mean Tm BRD9 (BRD9) [K]	Mean Tm PB1A(5) (PB1A(5)) [K]	Mean Tm TRIM33B (TRIM33B) [K]	Mean Tm BRD3 (2) (BRD3 (2)) [K]	Mean Tm SMARCA2A (SMARCA2A) [K]	other results
Cn1cc(-c2ccc(C(=O)Nc3ccccc3N)cc2)c2cc[nH]c2c1=O [NB462]	0.1 ± 0.4	0.1 ± 0.1	0.6 ± 0.1	1.3 ± 0.0	-0.2 ± 0.1	3.1 ± 0.5	0.5 ± 0.0	2.0 ± 0.3	0.4 ± 0.2	-0.3 ± 0.2	1.8 ± 0.3	0.3 ± 0.1	0.4 ± 0.1	-0.5 ± 0.1	0.3 ± 0.1	5.2 ± 1.2	0.0 ± 0.1	0.4 ± 0.1	6.1 ± 0.0	-0.1 ± 0.1	Mean Tm BRPF1B (BRPF1B): 0.8 ± 0.1 K; Mean Tm BRD7 (BRD7): 5.6 ± 0.3 K; Mean Tm BRD2 (2) (BRD2 (2)): 5.3 ± 0.1 K; Mean Tm TAF1LA (2) (TAF1LA (2)): 1.7 ± 0.1 K; bromodomain selectivity in DSF screen (panel of 32 bromodomains): BRD7 and BRD9 as prominent off-targets
Cn1cc(-c2ccc(C(=O)Nc3cc(-c4ccccc4)ccc3N)cc2)c2cc[nH]c2c1=O [NB503]	1.9 ± 0.2	1.0 ± 0.6	0.7 ± 0.5	1.7 ± 0.1	0.4 ± 0.1	3.2 ± 0.5	1.4 ± 0.1	1.0 ± 0.3	-1.3 ± 0.1	0.0 ± 0.0	1.4 ± 0.3	1.3 ± 0.1	1.0 ± 0.2	1.2 ± 0.1	0.6 ± 0.3	1.0 ± 0.8	1.1 ± 0.2	0.5 ± 0.0	4.6 ± 0.7	1.2 ± 0.5	Mean Tm BRPF1B (BRPF1B): 0.8 ± 0.3 K; Mean Tm BRD7 (BRD7): 1.1 ± 0.2 K; Mean Tm BRD2 (2) (BRD2 (2)): 3.6 ± 0.4 K; Mean Tm TAF1LA (2) (TAF1LA (2)): 1.2 ± 0.0 K; bromodomain selectivity in DSF screen (panel of 32 bromodomains): high selectivity for BET bromodomains
Cn1cc(-c2ccc(C(=O)Nc3cc(-c4ccccc4)ccc3N)nc2)c2cc[nH]c2c1=O [NB512]	–	–	–	–	–	–	–	–	–	–	–	–	–	–	–	–	–	–	–	–	remaining activity at 1 µM (HDAC1; 1 µM NB512): 20.6%; remaining activity at 10 µM (HDAC1; 10 µM NB512): 10.3%; selectivity among zinc-dependent HDACs [1]: high selectivity for HDAC1/2
